Assays:
Format in all cases: cell-based, human
p38α = experiment: Western blot, expression of p-p38α/p38α in L-02 cells, without and with inhibitor SB203580; conditions: for ratios of p-p38α/p38α expression compared with the blank groups, in words: L-02, 10μmol/L diosgein, 2000μmol/L baicalin, 60μmol/L terandrine, 6μmol/L evodiamine
Description: After the examination of biochemical indicators for hepatotoxicity in the cell, the expression of crucial liver injury protein in L02 cell lines among different groups was compared by Western blot analysis. Briefly, the proteins from different groups were harvested and lysed using lysis buffer (Sigma-Aldrich) containing a proteinase inhibitor cocktail (Sigma-Aldrich), the equal amounts of protein were separated by electrophoresis on a pre-cast 10% SDS-polyacrylamide gel (Bio-Rad, Hercules, CA) and transferred to polyvinylidene difluoride membranes (Millipore, Bedford, MA). Next, the membrane was blocked in TBST-T containing 5% skim milk for 2 h at room temperature and probed with anti-beta-catenin, and incubated overnight with the indicated primary antibody, followed by incubation with the secondary antibodies at room temperature for another 2 h. Finally, all the immune blots were visualized by enhanced chemiluminescence (Pierce Biotechnology, Inc., Rockford, IL, USA) and western blots were performed at least three times.
According to the results of network pharmacology, we examined the expression levels of p38α. […] The Specific specific composition information is was shown in S3 Table. […] However, the mechanism of saikosaponin D causing liver injury still remained unclear.
(§1) To further and fully elucidating the mechanism of the liver injury caused by the representative compounds from urate-lowering Chinese herbs, we chose the p38α inhibitor, SB203580 to verify our findings. Seemingly, the ALT, AST, ALP, and LDH activities of each group decreased to varying degrees under the influence of inhibitor. The specific composition information was shown in S2 Table. […] The Specific specific composition information is was shown in S4 Table.

L-02 cells [1] = experiment: Biochemical indicators of hepatotoxicity (ALT, AST, LDH, ALP activity) of L-02 cells, without and with p38 inhibitor SB203580
Description: (§2) The normal hepatic cell (L02) cell lines were obtained from the National Infrastructure of Cell Line Resources (Chinese Academy of Medical Sciences, Beijing, China), and maintained in Dulbecco’s modified Eagle’s medium (DMEM, 10-013-CVR) supplemented with 10% fetal bovine serum (FBS, Hyclone), 1% penicillin and streptomycin (PS, 100 IU/ml penicillin, 100 μg/ml streptomycin, Mediatech, 30-002-CI). All cells were incubated in a humidified atmosphere at 37°C with 5% CO2.
To determine how potential liver injury-compounds affected biochemical indicators of L-02 cells, we investigated the activities of AST, ALT, LDH and ALP in cell migration capacity under the different representative compounds conditions (representative compounds group), the inhibitor conditions (inhibitor group), and the negative control. For these experiments, three replicates were made for each concentration of the different representative compounds with liver injury, and each group was established three holes and cultured in 6 times repeatedly. […] Subsequently, the supernatant extraction of L02 cells was collected and centrifuged to detect the activities of AST, ALT, LDH, and ALP by chromatometry method.
as §1, with “Seemingly, the ALT, AST, ALP, and LDH activities of each group decreased to varying degrees under the influence of inhibitor.” left out

L-02 cells [2] = experiment: MTT assay, cell viability of L-02 cells
Description: as §2
(§3) L-02 cells were trypsinized by 0.25% trypsin after reaching the confluence of 70–80% and plated in 96-well plates at the density of 1.6 × 10^3 […]. And L-02 cells were cultured for 24 hours in vitro before exposure to varying concentrations of different representative compounds with liver injury for further incubating in another 24 hours. Then, 20 μl of 0.25 mg/ml3-(4,5-dimethylthiazol-2-yl)-2,5-diphenyltetrazolium bromide (MTT)-tetrazolium salts (Sigma-Aldrich Corp., St. Louis, MO, USA) in PBS was added to each hole in 96-well plates. After 4 hours of incubation, the formazan crystals were dissolved by 150μl Dimethyl Sulphoxide (DMSO), and shocked to dissolve thoroughly, then the cell viability was measured by MTT method at 570 nm. All experiments were repeated in triplicate independently.

[3] = MTT assay, cell viability of L-02 cells; conditions: human, L-02 (L02) normal hepatic cells, L-02, MTT, 24 h, read-out: cells viabilityrate
Description: as §2, §3

[4] = Table 5, L-02 supernatant, 24 h, 40μmol/L
[5] = Table 5, L-02 supernatant, 24 h, 60μmol/L
[6] = Table 5, L-02 supernatant, 24 h, 80μmol/L
[7] = S2 Table, L-02, 5μmol/L+inhibitor (SB203580)
[8] = S2 Table, L-02, 5μmol/L, no inhibitor
[9] = S2 Table, L-02, 10μmol/L+inhibitor (SB203580)
[10] = S2 Table, L-02, 10μmol/L, no inhibitor
[11] = Table 5, L-02 supernatant, 24 h, 5μmol/L
[12] = Table 5, L-02 supernatant, 24 h, 10μmol/L
[13] = Table 5, L-02 supernatant, 24 h, 15μmol/L
[14] = S2 Table, L-02, 1000μmol/L+inhibitor (SB203580)
[15] = S2 Table, L-02, 1000μmol/L, no inhibitor
[16] = S2 Table, L-02, 2000μmol/L+inhibitor (SB203580)
[17] = S2 Table, L-02, 2000μmol/L, no inhibitor
[18] = Table 5, L-02 supernatant, 24 h, 1000μmol/L
[19] = Table 5, L-02 supernatant, 24 h, 2000μmol/L

## Evodiamine
p38α
  ratios of p-p38α/p38α expression compared with the blank groups, in words: increased
p38α; S3 Table, L-02, 24 hours of incubation, 5μmol/L
  p-p38α/p38α: 1.13±0.33
p38α; S3 Table, L-02, 24 hours of incubation, 6μmol/L
  p-p38α/p38α: 1.39±0.34
p38α; S3 Table, L-02, 24 hours of incubation, 7μmol/L
  p-p38α/p38α: 1.03±0.48
p38α; S4 Table, L-02, 24 hours, 5μmol/L+inhibitor (SB203580)
  p-p38α/p38α: 0.82±0.02
p38α; S4 Table, L-02, 24 hours, 5μmol/L, no inhibitor
  p-p38α/p38α: 1.74±0.42
p38α; S4 Table, L-02, 24 hours, 10μmol/L+inhibitor (SB203580)
  p-p38α/p38α: 0.47±0.03
p38α; S4 Table, L-02, 24 hours, 10μmol/L, no inhibitor
  p-p38α/p38α: 1.45±0.29
p38α; S4 Table, L-02, 24 hours, 15μmol/L+inhibitor (SB203580)
  p-p38α/p38α: 0.91±0.22
p38α; S4 Table, L-02, 24 hours, 15μmol/L, no inhibitor
  p-p38α/p38α: 1.39±0.77

## C[S+]([O-])c1ccc(-c2nc(-c3ccncc3)c(-c3ccc(F)cc3)[nH]2)cc1 (stereo not shown) [SB203580, reference compound]
L-02 cells [1]; SB203580 at the dose of 20μmol/L added to components
  effect on component-induced cell damage of L-02 cells, in words: attenuate the component-induced cell damage

## COc1ccc2cc1Oc1ccc(cc1)C[C@H]1c3cc(c(OC)cc3CCN1C)Oc1c(OC)c(OC)cc3c1[C@H](C2)N(C)CC3 [Tetrandrine]
L-02 cells [2]; dose of 60–90 μmol/L
  cell survival rate, in words: lower cell survival rate
[3]; 40 μmol/L
  viability at 24 h, 40 μmol/L: 101 ± 9.72%
[3]; 60 μmol/L
  viability at 24 h, 60 μmol/L: 91.8 ± 4.63%
[3]; 80 μmol/L
  viability at 24 h, 80 μmol/L: 83.3 ± 5.22%
p38α; S3 Table, L-02, 24 hours of incubation, 40μmol/L
  p-p38α/p38α: 1.03±0.29
p38α; S3 Table, L-02, 24 hours of incubation, 60μmol/L
  p-p38α/p38α: 0.98±0.14
p38α; S3 Table, L-02, 24 hours of incubation, 80μmol/L
  p-p38α/p38α: 1.26±0.52
p38α; S4 Table, L-02, 24 hours, 40μmol/L+inhibitor (SB203580)
  p-p38α/p38α: 0.81±0.03
p38α; S4 Table, L-02, 24 hours, 40μmol/L, no inhibitor
  p-p38α/p38α: 0.97±0.03
p38α; S4 Table, L-02, 24 hours, 60μmol/L+inhibitor (SB203580)
  p-p38α/p38α: 0.98±0.17
p38α; S4 Table, L-02, 24 hours, 60μmol/L, no inhibitor
  p-p38α/p38α: 0.79±0.24
p38α; S4 Table, L-02, 24 hours, 80μmol/L+inhibitor (SB203580)
  p-p38α/p38α: 1.28±0.26
p38α; S4 Table, L-02, 24 hours, 80μmol/L, no inhibitor
  p-p38α/p38α: 1.17±0.07
L-02 cells [1]; S2 Table, L-02, 40μmol/L, no inhibitor
  ALT: 16.55± 0.71 U/L
L-02 cells [1]; S2 Table, L-02, 60μmol/L, no inhibitor
  AST: 5.64± 0.56 U/L
L-02 cells [1]; [4]
  ALP: 16.55±0.71 ^*^Δ King's unit /100ml
  ALT: 4.36±0.35 U/L
  AST: 713.48±49.44 ^*^Δ U/L
  LDH: 0.79±0.08 U/L
L-02 cells [1]; [5]
  ALT: 5.01±1.20 U/L
  AST: 705.81±98.97^Δ U/L
  LDH: 0.82±0.16 U/L
L-02 cells [1]; [6]
  ALP: 17.45±0.35 ^**^ΔΔ King's unit /100ml
  ALT: 4.84±0.86 U/L
  AST: 736.08±77.41 ^*^Δ U/L
  LDH: 0.93±0.07 U/L

## O=c1c2ccccc2nc2n1CCc1c-2[nH]c2ccccc12 [Rutaecarpine]
L-02 cells [2]; dose of 5μmol/L
  cell viability of L-02 (MTT), in words: good potency inhibitor against the cell viability
[3]; 5 μmol/L
  viability at 24 h, 5 μmol/L: 92.7 ± 3.74%
[3]; 10 μmol/L
  viability at 24 h, 10 μmol/L: 81.3 ± 6.29%
[3]; 15 μmol/L
  viability at 24 h, 15 μmol/L: 80.5 ± 3.9%
L-02 cells [1]; [7]
  ALP: 1.13± 0.12 King's unit /100ml
  ALT: 5.01± 0.13 U/L
  AST: 9.25± 1.09 U/L
  LDH: 1193.32± 3.90 U/L
L-02 cells [1]; [8]
  ALP: 1.63± 0.03 King's unit /100ml
  ALT: 6.00± 0.43 U/L
  AST: 10.33± 0.74 U/L
  LDH: 1105.81± 85.95 U/L
L-02 cells [1]; [9]
  ALP: 1.39± 0.28 King's unit /100ml
  ALT: 5.63± 0.09 U/L
  AST: 10.52± 0.97 U/L
  LDH: 1217.18± 41.25 U/L
L-02 cells [1]; [10]
  ALP: 1.07± 0.14 King's unit /100ml
  ALT: 5.67± 0.12 U/L
  AST: 9.81± 0.74 U/L
  LDH: 1155.13± 35.72 U/L
L-02 cells [1]; [11]
  ALP: 5.77±0.54 King's unit /100ml
  ALT: 9.90±0.99 U/L
  AST: 1075.18±91.40 U/L
  LDH: 1.62±0.04 U/L
L-02 cells [1]; [12]
  ALP: 5.67±0.12 King's unit /100ml
  ALT: 8.81±1.85 U/L
  AST: 1127.68±56.72 U/L
  LDH: 1.54±0.36 U/L
L-02 cells [1]; [13]
  ALP: 5.54±0.57 King's unit /100ml
  ALT: 9.33±1.85 U/L
  AST: 1000.00±61.27 U/L
  LDH: 1.71±0.16 U/L

## O=C(O)[C@H]1O[C@@H](Oc2cc3oc(-c4ccccc4)cc(=O)c3c(O)c2O)[C@H](O)[C@@H](O)[C@@H]1O [Baicalin]
L-02 cells [2]; dose of 2000μmol/L
  effect on L-02 (MTT), in words: trend of proliferative effects
[3]; 1000 μmol/L
  viability at 24 h, 1000 μmol/L: 154 ± 21.1%
[3]; 2000 μmol/L
  viability at 24 h, 2000 μmol/L: 98.6 ± 16.5%
p38α
  ratios of p-p38α/p38α expression compared with the blank groups, in words: increased
p38α; S3 Table, L-02, 24 hours of incubation, 1000μmol/L
  p-p38α/p38α: 1.24±0.29
p38α; S3 Table, L-02, 24 hours of incubation, 2000μmol/L
  p-p38α/p38α: 2.06±0.66
p38α; S4 Table, L-02, 24 hours, 1000μmol/L+inhibitor (SB203580)
  p-p38α/p38α: 0.76±0.15
p38α; S4 Table, L-02, 24 hours, 1000μmol/L, no inhibitor
  p-p38α/p38α: 1.25±0.24
p38α; S4 Table, L-02, 24 hours, 2000μmol/L+inhibitor (SB203580)
  p-p38α/p38α: 0.26±0.03
p38α; S4 Table, L-02, 24 hours, 2000μmol/L, no inhibitor
  p-p38α/p38α: 1.08±0.6
L-02 cells [1]; [14]
  ALP: 0.70± 0.05 King's unit /100ml
  ALT: 1.88± 0.20 U/L
  AST: 4.12± 0.26 U/L
  LDH: 778.83± 14.65 U/L
L-02 cells [1]; [15]
  ALP: 0.86± 0.06 King's unit /100ml
  ALT: 2.24± 0.30 U/L
  AST: 4.45± 1.09 U/L
  LDH: 699.84± 33.81 U/L
L-02 cells [1]; [16]
  ALP: 0.85± 0.06 King's unit /100ml
  ALT: 2.27± 0.32 U/L
  AST: 4.38± 0.84 U/L
  LDH: 981.04± 3.87 U/L
L-02 cells [1]; [17]
  ALP: 0.92± 0.13 King's unit /100ml
  ALT: 2.01± 0.20 U/L
  AST: 4.48± 0.13 U/L
  LDH: 840.44± 32.45 U/L
L-02 cells [1]; [18]
  ALP: 2.03±0.44 King's unit /100ml
  ALT: 4.45±1.09 U/L
  AST: 690.76±33.24 U/L
  LDH: 0.81±0.10 U/L
L-02 cells [1]; [19]
  ALP: 1.94±0.21 King's unit /100ml
  ALT: 4.48±0.13 U/L
  AST: 824.64±39.22 U/L
  LDH: 0.84±0.18 U/L
